Data on 1 compound can be found in ChEMBL document CHEMBL4422615, “Novel non-xanthine antagonist of the A2B adenosine receptor: From HTS hit to lead structure” (Eur J Med Chem, 2019).

Activity calls are given as the source filed them.

Data set [1] is described as follows: Fraction unbound in rat plasma by equilibrium dialysis method. Format: ADME, cell-free. On the technique in general: Equilibrium dialysis compares concentrations on both sides of a semipermeable membrane.
Data set [2] deals with T1, Adenosine receptor A2b (Rattus norvegicus, UniProt P29276).
T1 sequence (P29276 whole entry): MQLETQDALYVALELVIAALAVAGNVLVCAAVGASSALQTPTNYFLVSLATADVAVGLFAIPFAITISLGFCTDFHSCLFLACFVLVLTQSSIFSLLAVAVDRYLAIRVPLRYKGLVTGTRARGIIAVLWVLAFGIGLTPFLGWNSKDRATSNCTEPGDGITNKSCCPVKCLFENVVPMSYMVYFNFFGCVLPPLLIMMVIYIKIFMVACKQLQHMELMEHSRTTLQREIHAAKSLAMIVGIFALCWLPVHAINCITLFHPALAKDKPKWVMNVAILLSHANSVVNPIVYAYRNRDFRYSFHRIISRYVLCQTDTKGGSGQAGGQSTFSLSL
The experiment in a line: Antagonist activity at recombinant rat A2B adenosine receptor expressed in CHO cells after 3 to 4 hrs by luciferase reporter gene assay. Format: cell-based.

The nature of data set [3]: Partition coefficient, log P of the compound. Format: physicochemical. Conditions: octanol/water.
Data set [4] is described as follows: Clearance in mouse plasma at 0.3 mg/kg, iv administered as bolus dose by HPLC-MS/MS analysis. It counts as ADME, organism-based.
Data set [5] is described as follows: Plasma clearance in mouse. It counts as ADME, organism-based.
Data set [6] deals with T2, Adenosine receptor A2b (Mus musculus, UniProt Q60614).
T2 sequence (Q60614 whole entry): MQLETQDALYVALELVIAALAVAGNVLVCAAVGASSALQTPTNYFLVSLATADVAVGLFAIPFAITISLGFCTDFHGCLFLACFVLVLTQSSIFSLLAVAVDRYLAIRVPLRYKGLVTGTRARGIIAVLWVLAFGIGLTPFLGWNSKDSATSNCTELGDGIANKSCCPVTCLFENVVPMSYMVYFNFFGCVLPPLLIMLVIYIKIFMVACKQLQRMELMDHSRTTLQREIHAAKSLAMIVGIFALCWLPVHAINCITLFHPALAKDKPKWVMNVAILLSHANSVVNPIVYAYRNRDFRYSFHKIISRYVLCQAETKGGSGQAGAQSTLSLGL
The experiment in a line: Antagonist activity at recombinant mouse A2B adenosine receptor expressed in CHO cells after 3 to 4 hrs by luciferase reporter gene assay. It counts as cell-based. In general terms: Reporter assays use an easily measured gene product as a stand-in for the process of interest.

Data set [7] can be described thus: Fraction unbound in dog plasma by equilibrium dialysis method. Format: ADME, cell-free, Canis lupus familiaris.
Data set [8] in a line: MRT in rat at 1 mg/kg, po for 15 mins by HPLC-MS/MS analysis. It counts as ADME, organism-based. To be noted: in vivo.
The nature of data set [9]: Half life in dog at 1 mg/kg, po for 15 mins by HPLC-MS/MS analysis. Format: ADME, organism-based, Canis lupus familiaris. To be noted: in vivo.
Data set [10] is described as follows: Fraction unbound in human plasma by equilibrium dialysis method. Format: ADME, cell-free.
Data set [11] can be described thus: Dose normalized AUC in mouse at 0.3 mg/kg, iv administered as bolus dose by HPLC-MS/MS analysis. Format: ADME, organism-based. To be noted: in vivo.
A short description of data set [12]: MRT in rat at 0.3 mg/kg, iv administered as infusion for 15 mins by HPLC-MS/MS analysis. Format: ADME, organism-based. Conditions: in vivo.
A short description of data set [13]: Dose normalized Cmax in dog at 1 mg/kg, po for 15 mins by HPLC-MS/MS analysis. It counts as ADME, organism-based, Canis lupus familiaris. Conditions: in vivo, 0.25 h.
Data set [14] is described as follows: Dose normalized AUC in rat at 0.3 mg/kg, iv administered as infusion for 15 mins by HPLC-MS/MS analysis. Format: ADME, organism-based. To be noted: in vivo, 0.25 h.
For data set [15], the target named is T3, Adenosine receptor A1 (Mus musculus, UniProt Q60612).
T3 sequence (Q60612 whole entry): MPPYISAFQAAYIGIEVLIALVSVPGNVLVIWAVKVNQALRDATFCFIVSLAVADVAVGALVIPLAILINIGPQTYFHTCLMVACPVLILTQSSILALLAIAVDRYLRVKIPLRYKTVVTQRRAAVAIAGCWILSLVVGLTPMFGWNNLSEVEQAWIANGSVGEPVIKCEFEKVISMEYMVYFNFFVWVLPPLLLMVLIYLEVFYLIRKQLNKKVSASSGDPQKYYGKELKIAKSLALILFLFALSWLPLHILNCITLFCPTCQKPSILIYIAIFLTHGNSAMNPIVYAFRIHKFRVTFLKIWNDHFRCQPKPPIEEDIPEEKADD
The experiment in a line: Antagonist activity at recombinant mouse A1 adenosine receptor expressed in CHO cells after 3 to 4 hrs by luciferase reporter gene assay. It counts as cell-based.

The nature of data set [16]: Volume of distribution at steady state in rat at 0.3 mg/kg, iv administered as infusion for 15 mins by HPLC-MS/MS analysis. It counts as ADME, organism-based. Conditions: in vivo, read-out: Vdss.
Data set [17] can be described thus: Fraction unbound in mouse plasma by equilibrium dialysis method. It counts as ADME, cell-free.
Data set [18] has as its system Mus musculus. The experiment in a line: Antifibrotic activity in FITC-induced C57BL/6J mouse pulmonary fibrosis model assessed as reduction in osteopontin level in lung at 100 to 500 mg/kg, bid administered via gavage pretreated for 45 mins before FITC addition until 72 hrs after FITC application by ELISA. Format: functional, organism-based. (An ELISA detects its analyte on a solid surface through an enzyme-linked reagent.)

Data set [19] can be described thus: Dose normalized Cmax in mouse at 1 mg/kg, iv administered as bolus dose by HPLC-MS/MS analysis. Conditions: in vivo. It counts as ADME, organism-based.
The target in data set [20] is Cytochrome P450 2C9 (Homo sapiens, UniProt P11712). The experiment in a line: Inhibition of CYP2C9 in human liver microsomes using diclofenac as substrate after 15 mins in presence of NADPH by LC-MS/MS analysis. It counts as ADME.
A short description of data set [21]: Half life in rat at 1 mg/kg, po for 15 mins by HPLC-MS/MS analysis. It counts as ADME, organism-based. To be noted: in vivo.
For data set [22], the target named is T4, Cytochrome P450 1A2 (Homo sapiens, UniProt P05177).
T4 sequence (P05177 whole entry): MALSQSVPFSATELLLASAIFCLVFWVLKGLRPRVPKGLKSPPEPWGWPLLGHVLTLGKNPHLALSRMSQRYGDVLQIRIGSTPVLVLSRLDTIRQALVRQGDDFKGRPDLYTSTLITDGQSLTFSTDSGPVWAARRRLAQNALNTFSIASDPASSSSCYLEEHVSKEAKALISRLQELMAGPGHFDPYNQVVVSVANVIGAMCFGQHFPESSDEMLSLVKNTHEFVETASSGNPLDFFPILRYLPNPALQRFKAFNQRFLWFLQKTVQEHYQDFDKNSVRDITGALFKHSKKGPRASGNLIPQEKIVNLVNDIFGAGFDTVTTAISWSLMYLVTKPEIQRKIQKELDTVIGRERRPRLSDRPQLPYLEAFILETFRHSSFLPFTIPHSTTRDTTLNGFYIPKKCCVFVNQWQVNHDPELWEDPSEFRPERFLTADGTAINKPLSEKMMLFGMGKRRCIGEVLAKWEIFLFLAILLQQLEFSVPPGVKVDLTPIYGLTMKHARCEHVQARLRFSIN
The experiment in a line: Inhibition of CYP1A2 in human liver microsomes using phenacetin as substrate after 15 mins in presence of NADPH by LC-MS/MS analysis. It counts as ADME.

Data set [23] in a line: Blood clearance in human by measuring intrinsic clearance in human hepatocytes by MS/MS analysis. It counts as ADME, cell-based.

Chain of Cytochrome P450 2C9 (P11712 whole entry): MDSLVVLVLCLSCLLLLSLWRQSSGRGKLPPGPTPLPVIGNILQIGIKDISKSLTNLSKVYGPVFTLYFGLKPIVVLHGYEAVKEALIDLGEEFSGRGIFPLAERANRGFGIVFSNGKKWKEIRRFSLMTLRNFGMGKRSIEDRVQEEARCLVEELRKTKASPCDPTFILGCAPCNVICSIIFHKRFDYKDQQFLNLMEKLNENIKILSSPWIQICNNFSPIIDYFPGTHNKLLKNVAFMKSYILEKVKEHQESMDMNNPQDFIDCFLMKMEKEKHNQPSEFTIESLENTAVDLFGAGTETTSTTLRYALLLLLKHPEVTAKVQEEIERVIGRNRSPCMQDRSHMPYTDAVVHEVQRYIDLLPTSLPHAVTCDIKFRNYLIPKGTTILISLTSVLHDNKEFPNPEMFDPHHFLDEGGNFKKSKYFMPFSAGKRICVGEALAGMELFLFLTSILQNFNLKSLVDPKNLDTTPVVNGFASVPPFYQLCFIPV

What is called fraction unbound is free concentration divided by total concentration. Low values mean little free substance, high ones much free substance. In general, IC50 refers to the concentration at which inhibition is half-maximal. One may read the logP as the decadic logarithm of the partition coefficient of the neutral form, usually between octanol and water. In general, clearance refers to the rate of elimination divided by the concentration. The low end stands for a low capacity for elimination, the high end for a high capacity for elimination. What is called MRT is a mean duration of stay, worked out from the concentration-time curve. The half-life is the time needed for the level to fall by half in the phase considered. A high value points to slow loss. Regarding `CCn1c(=O)c2c(C)c(C(=O)N3CCC(O)CC3)sc2n(CCC(F)(F)F)c1=O`, the fraction unbound in [1] worked out at 0.7; in data set [7], 0.54; in data set [10], 0.6; in data set [17], 0.3. Moreover, the IC50 was 280 nM in data set [2]; 400 nM in [6]; above 6700 nM in [15]; above 20000 nM in data set [20]; above 20000 nM in data set [22]. In addition, in [3], the logP stood at 1.99. Further, the clearance in data set [4] and in data set [5] was 10.2 mL/min/kg throughout. The results for the mean residence time MRT in data set [8] and in data set [12] were 2 h and 1.3 h, respectively. The half-life in data set [9] was 5.1 h; in [21], 1.4 h. Further, the AUC/dose in [11] worked out at 1.6 kg·h/L; in [14], 0.88 kg·h/L. Further, the figures for the Cmax/dose in [13] and in data set [19] were 0.61 kg/L and 1.2 kg/L, respectively. Also, the Vd in data set [16] turned out to be 1.5 L/kg. Moreover, the outcome in data set [18] was inactive. For the same compound, the CLhep predicted in data set [23] was below 3.5 mL/min/kg.
